Consider eight molecules from PubChem BioAssay (NCI).

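Values below derive from 48-hour exposures of cells grown in 96-well plates, with endpoints linearly interpolated between the two concentrations bracketing the appropriate inhibition level. Here, GI50 denotes the concentration required for 50% inhibition of growth. TGI marks complete inhibition of growth.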 A value given as a limit tells only on which side of the number the result lay.

What all share (assay): NCI-60 cell line screen, 48 h
In assay [1] the test system is ACHN renal.
The test system of assay [2] is DU-145 prostate.
Assay [3] has as its system HCT-116 colon.
Assay [4] concerns HS 578T breast.
Assay [5] relates to LOX IMVI melanoma.
For assay [6], the system named is MOLT-4 leukemia.
The subject of assay [7] is NCI/ADR-RES ovarian.
Assay [8] has as its system SF-295 CNS.
Assay [9] relates to SNB-75 CNS.
For assay [10], the system named is U251 CNS.

On to `O=C(NCc1cn(Cc2cccc(Oc3ccccc3)c2)nn1)c1cccnc1Nc1ccc(F)cc1`, for which the GI50 in assay [1] was 11 µM; in assay [2], 8.58 µM; in assay [3] it was 5.02 µM; in assay [4] it was 30.9 µM; in assay [5] it was 61.3 µM; in assay [6], > 100 µM. The GI50 was 14 µM in assay [7], 5.66 µM in assay [8], 3.81 µM in [9] and 7.12 µM in assay [10]. In addition, the TGI in assay [1], in assay [2], in assay [3], in assay [4], in [5] and in [6] was > 100 µM throughout. Also, the TGI in assay [7] was > 100 µM; in [8], 47.6 µM; in assay [9] it was 21.3 µM; in assay [10], > 100 µM.

`COC(=O)N[C@H]1CCc2cc(OC)c(OC)c(OC)c2-c2ccc(SC)c(=O)cc21`: the GI50 in [1], in assay [2], in [3], in assay [4], in assay [5] and in assay [6] was < 0.01 µM each time. For the same molecule, the GI50 in assay [7] was 0.0247 µM; in [8], < 0.01 µM; in assay [9], < 0.01 µM; in assay [10], < 0.01 µM. The TGI was > 100 µM in assay [1]; > 100 µM in [2]; > 100 µM in assay [3]; > 100 µM in [4]; > 100 µM in [5]; > 70.5 µM in assay [6]. In addition, the TGI in assay [7] was > 100 µM; in assay [8], 27.1 µM; in [9], > 100 µM; in assay [10] it was > 43.5 µM.

As to `CC(=O)/C(=C\c1ccc(Cl)cc1)c1ccccc1`, the GI50 in assay [1] is 0.548 µM; in assay [2] it was 0.285 µM; in assay [4], 0.0832 µM; in assay [5], 0.123 µM; in assay [6], 0.124 µM; in [7] it was 2.07 µM. Also, the values for the GI50 in [8], in [9] and in [10] were 0.054 µM, 0.0691 µM and 0.0842 µM, respectively. Besides, the TGI in [1] is > 70 µM; in assay [2], > 100 µM; in [4] it was > 100 µM; in assay [5], 16.2 µM; in assay [6], > 100 µM; in assay [7] it was > 100 µM. In addition, the TGI in [8], in [9] and in [10] was > 100 µM each time.

With `CCOc1ccc(N(C)c2ccc(/C=C/C3=[N+](C)c4ccccc4C3(C)C)cc2)cc1`, the GI50 in assay [1] is 0.306 µM; in assay [2], 0.421 µM; in assay [3], 0.0725 µM; in [4], 0.314 µM; in assay [5], 0.133 µM; in assay [6] it was 0.193 µM. Moreover, the GI50 in assay [7] is 2.43 µM; in assay [8] it was 0.47 µM; in [9] it was 1.13 µM; in assay [10], 0.122 µM. Moreover, the TGI in [1] is 1.11 µM; in assay [2], 1.86 µM; in assay [3] it was 1.1 µM; in assay [4] it was 2 µM; in assay [5], 0.364 µM; in assay [6], 0.709 µM. Further, the TGI turned out to be 16.6 µM in assay [7], 3.89 µM in assay [8], 2.76 µM in [9] and 1.17 µM in assay [10].

On to `CN1C(=O)C(c2c[nH]c3ccccc23)=C(c2c[nH]c3ccccc23)C1=O`, for which the GI50 was 6 µM in [1]; 9.38 µM in [2]; 6.75 µM in [3]; 5.18 µM in assay [4]; 3.73 µM in [5]; 7.83 µM in assay [6]. Further, the GI50 is 6.66 µM in [7], 4.48 µM in assay [8], 4.26 µM in assay [9] and 7.03 µM in assay [10]. The TGI in assay [1] is > 25 µM; in assay [2] it was > 25 µM; in [3], > 25 µM; in assay [4] it was 21.3 µM; in assay [5] it was 9.3 µM; in assay [6], > 25 µM. The TGI was > 25 µM in [7], 11.8 µM in assay [8], > 25 µM in [9] and > 25 µM in assay [10].

For `Cc1c2cnccc2c(C)c2c1c1ccccc1n2CCOC(=O)c1ccccc1`, the TGI was 56.3 µM in [1]; > 100 µM in assay [2]; 28.2 µM in [3]; 84.6 µM in assay [4]; 33.7 µM in [5]; 25.4 µM in assay [6]. Further, the TGI stood at 33 µM in assay [7], 33 µM in [8], 44.7 µM in assay [9] and 44.1 µM in [10].

As for `CC(=O)OCC1C(=O)OCC1C(=O)N1Cc2cc3ccccc3nc2C1` (stereo not drawn), the TGI in assay [1] was 3.39 µM; in assay [2], 14 µM; in assay [3] it was 3.5 µM; in [4], > 86.5 µM; in assay [5] it was 5.66 µM; in assay [6] it was 4.25 µM. Moreover, the TGI worked out at 7.56 µM in assay [7], 29.9 µM in assay [8], 14.9 µM in [9] and 24.9 µM in assay [10].

For the molecule `COc1ccc(-c2nc3sc(-c4cc(OC)c(OC)c(OC)c4)nn3c2/C=C2/C(=O)Nc3ccc(F)cc32)cc1`, the GI50 was 3.29 µM in assay [1]; 1.87 µM in assay [2]; 14.2 µM in [3]; 16.2 µM in [4]; 6.88 µM in [5]; 4.54 µM in assay [6]. Besides, the GI50 is 21.9 µM in assay [7], 3 µM in assay [8], 10.3 µM in [9] and 1.77 µM in assay [10]. In addition, the TGI in assay [1] is 15.3 µM; in assay [2] it was 4.53 µM; in assay [3] it was 40.5 µM; in [4] it was > 100 µM; in assay [5], 37.6 µM; in [6], > 100 µM. Further, the TGI in assay [7] was > 100 µM; in [8], 10.8 µM; in [9] it was 22.6 µM; in [10], 3.39 µM.
